The values that follow come from patent publication US11597724B2, “Herbicidally active 3-phenylisoxazoline-5-carboxamides of tetrahydro and dihydrofuran carboxylic acids and esters” (Bayer Aktiengesellschaft, priority 2017, dated 2023).

Holding throughout (type): in vivo
In assay [1] the test system is Veronica persica. In words: Pre-emergence herbicidal activity against VERPE. The following applies: dosage 80 g/ha; for pest or weed control at 80 g/ha: Veronica persica, 504 h. The source says:
(§1) 1. Pre-Emergence Herbicidal Action and Crop Plant Compatibility Seeds of monocotyledonous and dicotyledonous weed plants and crop plants are placed in plastic or wood fiber pots and covered with soil. The compounds of the invention, formulated in the form of wettable powders (WP) or as emulsion concentrates (EC), are then applied onto the surface of the covering soil as aqueous suspension or emulsion with addition of 0.5% additive at a water application rate of 600 l/ha (converted). After the treatment, the pots are placed in a greenhouse and kept under good growth conditions for the trial plants. After about 3 weeks, the effect of the preparations is scored visually in comparison with untreated controls as percentages. For example, 100% activity=the plants have died, 0% activity=like control plants. STEME: Stellaria media VERPE: Veronica persica

The subject of assay [2] is Veronica persica. Briefly: Post-emergence herbicidal activity against VERPE. The following applies: dosage 320 g/ha; for pest or weed control at 320 g/ha: Veronica persica, 504 h. In a few lines: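 Greenhouse plants treated at one-leaf stage, 2–3 weeks after sowing, by spraying WP or EC formulations with 0.5% additive at 600 l/ha water. Visual rating about 3 weeks later versus untreated controls (100% = plants dead, 0% = like controls).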

The next assay deals with Echinochloa crus-galli. Briefly: Pre-emergence herbicidal activity against ECHCG. The following applies: dosage 80 g/ha, scored visually after about 3 weeks vs untreated controls (100% = plants have died, 0% = like control plants); for pest or weed control at 80 g/ha: Echinochloa crus-galli, 504 h.
Excerpt: as §1, with “ECHCG: Echinochloa crus-galli HORMU: Hordeum murinum” for “STEME: Stellaria media VERPE: Veronica persica”

For a further assay, the system named is Alopecurus myosuroides. Briefly: Post-emergence herbicidal activity against ALOMY. The following applies: dosage 320 g/ha, rated about 3 weeks after treatment; for pest or weed control at 320 g/ha: Alopecurus myosuroides, 504 h. An outline of the steps:
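Greenhouse-grown plants treated at one-leaf stage, 2 to 3 weeks after sowing, with WP or EC formulations sprayed as aqueous suspension/emulsion plus 0.5% additive at 600 l/ha. Activity rated visually about 3 weeks later versus untreated controls (100% = plants dead, 0% = like control).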

The test system of the next assay is Setaria viridis. Briefly: Pre-emergence herbicidal activity against SETVI. The following applies: dosage 80 g/ha; for pest or weed control at 80 g/ha: Setaria viridis, 504 h.
Excerpt: as §1, with “POLCO: Polygonum convolvulus SETVI: Setaria viridis” for “STEME: Stellaria media VERPE: Veronica persica”

Another assay deals with Polygonum convolvulus. Briefly: Pre-emergence herbicidal activity against POLCO. The following applies: dosage 80 g/ha; for pest or weed control at 80 g/ha: Fallopia convolvulus, 504 h.
Excerpt: as §1, with “POLCO: Polygonum convolvulus SETVI: Setaria viridis” for “STEME: Stellaria media VERPE: Veronica persica”

For another assay, the system named is Lolium rigidum. Briefly: Post-emergence herbicidal activity against LOLRI. The following applies: dosage 320 g/ha, rated about 3 weeks after treatment; for pest or weed control at 320 g/ha: Lolium rigidum, 504 h. In a few lines: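 Greenhouse-grown plants sprayed post-emergence at the one-leaf stage, 2 to 3 weeks after sowing, with WP or EC formulations plus 0.5% additive at 600 l/ha water. Activity rated visually after about 3 weeks versus untreated controls (100% = plants dead, 0% = like control).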

For the compound `COC(=O)C1COCC1NC(=O)[C@@]1(C)CC(c2cc(F)cc(F)c2)=NO1` (stereo partly drawn) [I-28, methyl 4-[[(5R)-3-(3,5-difluorophenyl)-5-methyl-4H-isoxazole-5-carbonyl]amino]tetrahydrofuran-3-carboxylate], the pest or weed control at 80 g/ha with Veronica persica [1] and in the assay on Echinochloa crus-galli was 90% each time. For the same compound, the pest or weed control at 320 g/ha with Veronica persica [2] and in the assay on Alopecurus myosuroides was 90% in each case.
Take `C=C[C@]1(C(=O)N[C@H]2CO[C@@H](C(=O)OC(C)(C)C)C2)CC(c2cc(F)cc(F)c2)=NO1` (mixture of isomers) [I-38, tert-butyl cis-4-[[(5S)-3-(3,5-difluorophenyl)-5-vinyl-4H-isoxazole-5-carbonyl]amino]tetrahydrofuran-2-carboxylate]: the pest or weed control at 80 g/ha in the assay on Veronica persica [1], in the assay on Setaria viridis, in the assay on Polygonum convolvulus and with Echinochloa crus-galli was 100% in each case. For the same compound, the pest or weed control (in general, how far the test organism was held down) at 320 g/ha with Veronica persica [2] was 80%; in the assay with Lolium rigidum it was 90%; in the assay on Alopecurus myosuroides, 90%.
In the case of `CCOC(=O)C1CC(NC(=O)C2(C)CC(c3cc(F)cc(F)c3)=NO2)CO1` (mixture of isomers) [I-43], in the assay on Veronica persica [1], the “Pre-emergence herbicidal activity against VERPE in %” value came to 90%. Moreover, the “Pre-emergence herbicidal activity against SETVI in %” value with Setaria viridis is given as 100%. Besides, the “Post-emergence herbicidal activity against VERPE in %” value in the assay with Veronica persica [2] was determined as 90%. The “Pre-emergence herbicidal activity against POLCO in %” value with Polygonum convolvulus was 100%. The “Post-emergence herbicidal activity against LOLRI in %” value in the assay on Lolium rigidum turned out to be 100%. The “Pre-emergence herbicidal activity against ECHCG in %” value with Echinochloa crus-galli was found to be 100%. For the same compound, the “Post-emergence herbicidal activity against ALOMY in %” value in the assay with Alopecurus myosuroides was determined as 100%.
Turning to `COC(=O)[C@H]1C[C@@H](NC(=O)C2(C)CC(c3cc(F)cc(F)c3)=NO2)CO1` (relative stereo) [I-01, methyl cis-4-[[3-(3,5-difluorophenyl)-5-methyl-4H-isoxazole-5-carbonyl]amino]tetrahydrofuran-2-carboxylate], the pest or weed control at 80 g/ha with Veronica persica [1], in the assay on Polygonum convolvulus and in the assay on Echinochloa crus-galli was 80% in each case. Moreover, the pest or weed control at 320 g/ha with Veronica persica [2] came to 80%; in the assay on Alopecurus myosuroides it was 100%.
In the case of `COC(=O)[C@H]1C[C@@H](NC(=O)[C@@]2(C)CC(c3cc(F)cc(F)c3)=NO2)CO1` (mixture of isomers) [I-09, methyl cis-4-[[(5R)-3-(3,5-difluorophenyl)-5-methyl-4H-isoxazole-5-carbonyl]amino]tetrahydrofuran-2-carboxylate], the pest or weed control at 80 g/ha with Veronica persica [1] was 90%; in the assay with Setaria viridis, 80%; in the assay on Polygonum convolvulus, 100%; with Echinochloa crus-galli, 90%. The pest or weed control at 320 g/ha with Veronica persica [2] amounted to 80%; with Alopecurus myosuroides, 90%.
With `C=C[C@]1(C(=O)N[C@H]2CO[C@@H](C(=O)OC)C2)CC(c2cc(F)cc(F)c2)=NO1` (single isomer, unassigned) [I-11], the “Pre-emergence herbicidal activity against VERPE in %” value in the assay on Veronica persica [1] stood at 100%. Also, the “Pre-emergence herbicidal activity against SETVI in %” value with Setaria viridis is listed as 100%. The “Pre-emergence herbicidal activity against POLCO in %” value with Polygonum convolvulus was 100%. The figures for the pest or weed control at 320 g/ha with Lolium rigidum and in the assay with Alopecurus myosuroides were 100% and 90%, respectively. The “Pre-emergence herbicidal activity against ECHCG in %” value in the assay on Echinochloa crus-galli is reported as 100%.
`C=C[C@]1(C(=O)NC2COCC2C(=O)OC)CC(c2cc(F)cc(F)c2)=NO1` (stereo partly drawn) [I-26, methyl 4-[[(5S)-3-(3,5-difluorophenyl)-5-vinyl-4H-isoxazole-5-carbonyl]amino]tetrahydrofuran-3-carboxylate]: the results for the pest or weed control at 80 g/ha in the assay on Veronica persica [1], in the assay with Setaria viridis and with Echinochloa crus-galli were 100%, 100% and 90%, respectively. For the same compound, the pest or weed control at 320 g/ha in the assay with Veronica persica [2] and with Alopecurus myosuroides was 90% throughout.
In the case of `COC(=O)[C@H]1C[C@@H](NC(=O)C2(C(F)(F)F)CC(c3cc(F)cc(F)c3)=NO2)CO1` (relative stereo) [I-06, methyl cis-4-[[3-(3,5-difluorophenyl)-5-(trifluoromethyl)-4H-isoxazole-5-carbonyl]amino]tetrahydrofuran-2-carboxylate], the values for the pest or weed control at 320 g/ha with Veronica persica [2] and in the assay with Alopecurus myosuroides were 80% and 90%, respectively. The pest or weed control at 80 g/ha in the assay on Polygonum convolvulus was determined as 100%; in the assay on Echinochloa crus-galli, 80%.
Take `CC1(C(=O)NC2COC(C(=O)O)C2)CC(c2cc(F)cc(F)c2)=NO1` (mixture of isomers) [I-41]: the “Pre-emergence herbicidal activity against SETVI in %” value with Setaria viridis is listed as 100%. The “Post-emergence herbicidal activity against VERPE in %” value in the assay with Veronica persica [2] is reported as 80%. The “Pre-emergence herbicidal activity against POLCO in %” value with Polygonum convolvulus was found to be 90%. The “Post-emergence herbicidal activity against LOLRI in %” value in the assay with Lolium rigidum came out at 100%. In addition, in the assay with Echinochloa crus-galli, the “Pre-emergence herbicidal activity against ECHCG in %” value came to 100%. In addition, the “Post-emergence herbicidal activity against ALOMY in %” value in the assay on Alopecurus myosuroides turned out to be 100%.
As to `CC1(C(=O)N[C@H]2CO[C@@H](C(=O)OCc3ccccc3)C2)CC(c2cccc(F)c2)=NO1` (mixture of isomers) [I-34, benzyl cis-4-[[(5RS)-3-(3-fluorophenyl)-5-methyl-4H-isoxazole-5-carbonyl]amino]tetrahydrofuran-2-carboxylate], the pest or weed control at 80 g/ha in the assay with Setaria viridis was 90%; in the assay with Polygonum convolvulus it was 90%; in the assay on Echinochloa crus-galli it was 80%. In addition, the values for the pest or weed control at 320 g/ha in the assay with Veronica persica [2], in the assay on Lolium rigidum and in the assay with Alopecurus myosuroides were 80%, 90% and 100%, respectively.
Regarding `C=CC1(C(=O)N[C@H]2CO[C@@H](C(=O)O)C2)CC(c2cc(F)cc(F)c2)=NO1` (relative stereo) [I-21, cis-4-[[3-(3,5-difluorophenyl)-5-vinyl-4H-isoxazole-5-carbonyl]amino]tetrahydrofuran-2-carboxylic acid], the pest or weed control at 80 g/ha in the assay with Veronica persica [1] was determined as 100%; in the assay with Setaria viridis, 90%; in the assay with Polygonum convolvulus, 90%; with Echinochloa crus-galli it was 100%. Moreover, the pest or weed control at 320 g/ha with Veronica persica [2] amounted to 100%; in the assay with Alopecurus myosuroides, 90%.
Regarding `C=C[C@]1(C(=O)N[C@H]2CO[C@@H](C(=O)OC)C2)CC(c2cc(F)cc(F)c2)=NO1` (single isomer, unassigned) [I-12], the pest or weed control at 80 g/ha came to 100% in the assay on Veronica persica [1], 100% in the assay with Setaria viridis, 100% in the assay on Polygonum convolvulus and 90% with Echinochloa crus-galli. The “Post-emergence herbicidal activity against LOLRI in %” value in the assay with Lolium rigidum is 100%. In the assay with Alopecurus myosuroides, the “Post-emergence herbicidal activity against ALOMY in %” value is 90%.
As for `C=C[C@]1(C(=O)N[C@H]2CO[C@@H](C(=O)OCc3ccccc3)C2)CC(c2cc(F)cc(F)c2)=NO1` (mixture of isomers) [I-37, benzyl cis-4-[[(5S)-3-(3,5-difluorophenyl)-5-vinyl-4H-isoxazole-5-carbonyl]amino]tetrahydrofuran-2-carboxylate], the pest or weed control at 80 g/ha in the assay with Veronica persica [1] was 100%; in the assay with Setaria viridis it was 100%; in the assay on Polygonum convolvulus, 100%; with Echinochloa crus-galli, 90%. For the same compound, the pest or weed control at 320 g/ha in the assay with Veronica persica [2] was 80%; in the assay on Lolium rigidum, 90%.
